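1) Cells in 96-well plates. 2) Compound, 48 h, 5 concentrations. 3) Linear interpolation between surrounding doses. 4) Unreached endpoint = highest concentration. Abbreviation: GI50, concentration required for 50% inhibition of growth.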 The source made the active and inactive calls. Rule as the data show it: active = GI50 up to about 1.1 µM and inactive = higher.
Tests used:
Assay in all cases: growth of human tumour cells (NCI), 48 h
A549 = tested on: A549
ACHN = tested on: ACHN
COLO 205 = tested on: COLO 205
DU-145 = tested on: DU-145
EKVX = tested on: EKVX
HCC 2998 = tested on: HCC 2998
HL-60 = tested on: HL-60
HOP-62 = tested on: HOP-62
KM12 = tested on: KM12
MDA-MB-435 = tested on: MDA-MB-435
MDA-N = tested on: MDA-N
OVCAR-5 = tested on: OVCAR-5
SNB-19 = tested on: SNB-19
SNB-75 = tested on: SNB-75
SW-620 = tested on: SW-620
T47D = tested on: T47D
TK-10 = tested on: TK-10
U-251 = tested on: U-251
Malme-3M = tested on: Malme-3M
HOP-92 = tested on: HOP-92

Measured: GI50

c1ccc2c[n+](CCCC[n+]3ccc4ccccc4c3)ccc2c1
inactive: A549 1.13 µM | ACHN > 100 µM | COLO 205 > 100 µM | DU-145 > 100 µM | EKVX > 100 µM | HCC 2998 > 100 µM | HL-60 > 100 µM | HOP-62 > 100 µM | KM12 > 100 µM | MDA-MB-435 > 100 µM | MDA-N > 100 µM | OVCAR-5 > 100 µM | SNB-19 21.8 µM | SNB-75 > 100 µM | SW-620 > 100 µM | T47D > 100 µM | TK-10 > 100 µM | U-251 > 100 µM

CC(C)N(C(C)C)S(=O)(=O)CC12CCC(C/C1=N\O)C2 (centres undefined)
inactive: A549 > 100 µM | ACHN > 100 µM | COLO 205 > 100 µM | DU-145 > 100 µM | EKVX > 100 µM | HCC 2998 > 100 µM | HL-60 > 100 µM | HOP-62 > 100 µM | KM12 > 100 µM | MDA-MB-435 > 100 µM | MDA-N > 100 µM | Malme-3M > 100 µM | OVCAR-5 > 100 µM | SNB-19 > 100 µM | SNB-75 > 100 µM | SW-620 > 100 µM | T47D > 100 µM | TK-10 > 100 µM | U-251 > 100 µM

O=[N+]([O-])/C=C1\COCc2cc3c(cc21)OCO3
inactive: A549 22 µM | ACHN 20.8 µM | COLO 205 23.1 µM | DU-145 19.1 µM | EKVX 28.1 µM | HCC 2998 18 µM | HL-60 25.2 µM | HOP-62 38.9 µM | HOP-92 30.7 µM | KM12 15.1 µM | MDA-MB-435 14.5 µM | MDA-N 18.9 µM | OVCAR-5 19.9 µM | SNB-75 16.5 µM | SW-620 22.1 µM | T47D 15.9 µM | TK-10 22.8 µM | U-251 18.6 µM

COc1ccc(/C=N/Nc2nc3ccccc3c(=O)n2-c2ccccc2)cc1
inactive: A549 > 100 µM | ACHN > 100 µM | COLO 205 > 100 µM | DU-145 > 100 µM | EKVX > 100 µM | HCC 2998 > 100 µM | HL-60 > 100 µM | HOP-62 > 100 µM | KM12 > 100 µM | MDA-MB-435 > 100 µM | MDA-N > 100 µM | Malme-3M > 100 µM | OVCAR-5 > 100 µM | SNB-19 > 100 µM | SNB-75 86.5 µM | SW-620 > 100 µM | T47D > 100 µM | TK-10 > 100 µM | U-251 > 100 µM
